The data set has as its system preadipocytes / differentiating adipocytes. The data set can be described thus: Adipocyte differentiation assay, markers taken together. It counts as cell-based, human. To be noted: for expression of the other four hallmark genes (HSL, aP2, Glut4, PPARγ) / 5 markers of adipocyte differentiation / five markers of adipocyte differentiation: differentiating adipocytes; for expression of the other four hallmark genes (HSL, aP2, Glut4, PPARγ): control ISIS 342673; for 5 markers of adipocyte differentiation: % of UTC (Table 75); for expression levels of markers of adipocyte differentiation (TG, leptin, aP2, HSL, Glut4, PPARγ): preadipocytes, 250 nM, day nine post-transfection, relative to ISIS-29848. How it is done: Oligomeric compounds of the invention are tested for their effects on preadipocyte differentiation. […] For the other adipocyte differentiation markers assayed, an oligomeric compound targeted to PPAR-γ, also known to inhibit adipocyte differentiation, may be used as a positive control.
Cells are transfected as described herein. […] Untreated control cells receive LIPOFECTIN™ only.
After the cells have reach confluence (approximately three days), they are exposed for an additional three days to differentiation medium (Zen-Bio, Inc., Research Triangle Park, N.C.) containing a PPAR-γ agonist, IBMX, dexamethasone, and insulin. Cells are then fed adipocyte medium (Zen-Bio, Inc.), which is replaced at 2 or 3 day intervals.
For assaying adipocyte differentiation, expression of the four hallmark genes, HSL, aP2, Glut4, and PPARγ, as well as triglyceride (TG) accumulation and leptin secretion were measured in adipocytes transfected with the uniform 2′-MOE phosphorothioate (PS) oligomeric compounds previously described. Cells are lysed on day nine post-transfection, in a guanadinium-containing buffer and total RNA is harvested. Real-time PCR is performed (Applied Biosystems, Prism 7700) on the total RNA using the following primer/probe sets for the adipocyte differentiation hallmark genes: (aP2): forward 5′-GGTGGTGGAATGCGTCATG-3′ (SEQ ID NO: 746), reverse 5′-[…]-3′ (SEQ ID NO: 747), probe 5′-FAM-[…]-TAMRA-3′ (SEQ ID NO: 748); (Glut4): forward 5′-GGCCTCCGCAGGTTCTG-3′ (SEQ ID NO: 749), reverse 5′-[…]-3′ (SEQ ID NO: 750), probe 5′-FAM-[…]-TAMRA-3′ (SEQ ID NO: 751); (HSL): forward 5′-ACCTGCGCACAATGACACA-3′ (SEQ ID NO: 752), reverse 5′-[…]-3′ (SEQ ID NO: 753), probe 5′-FAM-[…]-TAMRA-3′ (SEQ ID NO: 754); (PPAR-γ): forward 5′-[…]-3′ (SEQ ID NO: 755), reverse 5′-[…]-3′ (SEQ ID NO: 756), probe 5′-FAM-[…]-TAMRA-3′ (SEQ ID NO: 757). The amount of total RNA in each sample is determined using a Ribogreen Assay (Molecular Probes, Eugene, Oreg.), and expression levels of the adipocyte differentiation hallmark genes were normalized to total RNA. Leptin protein and triglyceride levels as well as mRNA levels for each of the four adipocyte differentiation hallmark genes are expressed relative to control levels (control=treatment with ISIS-29848 (SEQ ID NO: 737)).
In some embodiments, differentiating adipocytes were treated with uniform 2′-MOE phosphorothioate oligomeric compounds according to the methods described above, and the expression of the four hallmark genes, HSL, aP2, Glut4, and PPARγ, as well as triglyceride (TG) accumulation were measured. […] Undifferentiated adipocytes were also compared as a negative control. […] The effects of TNF-α, also known to inhibit adipocyte differentiation, were also measured.

For “AGCCTCCTTCTTCTCGTACTA (anti-miR; chemistry not fully specified) [ISIS 328129, uniform 2′-MOE PS; targets hypothetical miRNA-173]”, the “expression of the other four hallmark genes (HSL, aP2, Glut4, PPARγ)” value is on record as “reduction of expression of the other four hallmark genes”.
Regarding “ATGACTACAAGTTTATGGCCA (chemistry not given here) [ISIS 328121, uniform 2′-MOE PS; targets hypothetical miRNA-161]”, the “5 markers of adipocyte differentiation” value is listed as “significant increases in all 5 markers of adipocyte differentiation”. Further, under “control ISIS 342673 (Tables 17, 18)”, the “five markers of adipocyte differentiation” value was “increase in all five markers of adipocyte differentiation”.
“ISIS 344340: SEQ ID NO: 1921, targeted to mir-140 (antisense UGUCCGUGGUUCUACCCUGUGGUA; all 2'-MOE, all phosphorothioate, methylation of C and T or U not given here)”: the “5 markers of adipocyte differentiation” value is listed as “significantly reduce the expression levels of 3 of the 5 markers of adipocyte differentiation”.
Consider “TCCACAAAGCTGAACATGTCT (anti-miR; chemistry not fully specified) [ISIS 328117, uniform 2′-MOE PS; targets hypothetical miRNA-144]”, for which the “expression of the other four hallmark genes (HSL, aP2, Glut4, PPARγ)” value is recorded as “reduction of expression of the other four hallmark genes”.
Turning to “AACTATACAACCTACTACCTCA (chemistry not fully specified) [ISIS 327903, uniform 2′-MOE PS; targets let-7a-3]”, the “expression levels of markers of adipocyte differentiation (TG, leptin, aP2, HSL, Glut4, PPARγ)” value is “increase in expression levels for several markers of adipocyte differentiation”.
Consider “ISIS 346687: SEQ ID NO: 1802, targeted to mir-129-1 (antisense AGCAAGCCCAGACCGCAAAAAG; all 2'-MOE, all phosphorothioate, methylation of C not given here)”, for which the “5 markers of adipocyte differentiation” value is “significantly reduce the expression levels of 3 of the 5 markers of adipocyte differentiation”.
With “CCATCTTTACCAGACAGTGTT (anti-miR; chemistry not fully specified) [ISIS 327942, uniform 2′-MOE PS; targets mir-141]”, the “expression levels of markers of adipocyte differentiation (TG, leptin, aP2, HSL, Glut4, PPARγ)” value is recorded as “significantly reduce the expression levels of 5 of 6 markers of adipocyte differentiation”.
As to “TCCTGGATGATATCTACCTC (chemistry not fully specified) [ISIS 328677, 5-10-5 2′-MOE gapmer PS; targets hypothetical miRNA-120 pri-miRNA]”, the “five markers of adipocyte differentiation” value (% of UTC (Table 55)) was “reduce the expression levels of all five markers of adipocyte differentiation”.
Same read-out and setting: the value for “CCCCATCTTAGCATCTAAGG (chemistry not fully specified) [ISIS 328691, 5-10-5 2′-MOE gapmer PS; targets mir-145 pri-miRNA]” was “increase in all five markers of adipocyte differentiation”.
Regarding “ISIS 344615: SEQ ID NO: 1900, targeted to mir-244* (Kosik) (antisense UCAACAAAAUCACUGAUGCUGGA; all 2'-MOE, all phosphorothioate, methylation of C and T or U not given here)”, the “5 markers of adipocyte differentiation” value is on record as “significant increases in all 5 markers of adipocyte differentiation”.
Turning to “ISIS 348117: SEQ ID NO: 1860, targeted to mir-321-1 (antisense GAACCCACAAUCCCUGGCUUA; all 2'-MOE, all phosphorothioate, methylation of C and T or U not given here)”, the “5 markers of adipocyte differentiation” value is given as “significantly reduce the expression levels of 3 of the 5 markers of adipocyte differentiation”.
On to “AACACTGATTTCAAATGGTGCTA (anti-miR; chemistry not fully specified) [ISIS 327876, uniform 2′-MOE PS; targets mir-29b-1]”, for which the “expression levels of markers of adipocyte differentiation (TG, leptin, aP2, HSL, Glut4, PPARγ)” value was “reduce the expression of several hallmark genes of adipocyte differentiation”.

Source of the values: patent US8178506B2, “Oligomeric compounds and compositions for use in modulation of small non-coding RNAs” (Regulus Therapeutics Inc., priority 2003, dated 2012).
